Measured values as given in patent US5470877A, “Uses of perillic acid methyl ester” (Wisconsin Alumni Research Foundation, priority 1994, dated 1995).
Values joined by “and” are separate entries in the source; they are usually repeats but may differ in a detail not shown here. Equal entries are not always repeated. Each block holds one molecule with its values, some of them ahead of it.

Assays:
[1] = test system: HT29 cells; test: Inhibition of HT29 colon adenocarcinoma cell growth/proliferation; assay type: cell-based, human; conditions: for Rank order, inhibition of HT-29 tumor cell proliferation: 1 = greatest inhibition, 5 = least inhibition
Protocol: (§1) We examined the effect of several of the terpenes on certain types of cell growth. […] Additionally, growth of HT29 (human colon adenocarcinoma) cells was inhibited by 80% by 1 mM perillyl alcohol.

[2] = rat, in vivo; cited from earlier work
[3] = in vivo; cited from earlier work
[4] = Chemistry panel and toxicity monitoring in human subjects; conditions: 100 mg/kg d-limonene
Protocol: The custard consisted of dry unflavored custard mix, cold water, cold whole milk, and orange oil. The components were blended at room temperature and then refrigerated for at least 30 minutes prior to ingestion by the subjects. Subjects ingested the orange oil-containing mixture over 2-10 minutes. […] One subject had additional blood draws for metabolite analysis at 1, 2, and 8 h post-ingestion. The chemistry panel consisted of: BUN, creatinine, calcium, magnesium, phosphorous, uric acid, total cholesterol, total protein, albumin, total bilirubin, y-glutamyl transpeptidase, alkaline phosphatase, aspartate aminotransferase, and lactate dehydrogenase. Subjects were monitored for toxicity for one week.

[5] = test system: DMBA-induced rat mammary carcinomas; test: Regression of DMBA-induced mammary carcinomas, pair-feeding study; assay type: in vivo, Wistar-Furth rat
Protocol: We used Wistar-Furth female rats for in vivo studies. Wistar-Furth female rats were obtained from Harlan Sprague-Dawley, Inc., (Madison, Wis.). All rats, arriving at 43-48 days of age, were housed at four rats per cage in wire-bottom metal cages and all were maintained with a light/dark cycle of 12 hours. Rats were provided Teklad Lab blox chow and acidified water ad libitum.
After one week of acclimation, the carcinogen DMBA was administered to the rats, which were 50-55 days old at this point. The DMBA was dissolved in a stock solution of 20 mg DMBA/ml sesame oil, heated and allowed to cool to room temperature before administration. DMBA (Eastman Kodak, Rochester, N.Y.) was given as a single gastric intubation of 50 mg DMBA/kg rat body weight.
In the pair-feeding study, a group of 70 mammals was treated with DMBA. Beginning four weeks post carcinogen administration, mammals were weighed and palpated weekly. Upon palpation of the first mammary carcinoma (diameter≥3 mm), mammals were randomly assigned to control or 2.5% (w/w) perillyl alcohol diet and pair-fed.
Perillyl alcohol (>96% pure by GC analysis, Aldrich, Milwaukee, Wis.) and Teklad 4% mouse/rat diet meal were thoroughly mixed and stored at -20° C. Fresh diets were made every 7-10 days. All mammals were provided fresh diet daily to minimize evaporation of the monoterpenes. For pair-feeding, the quantity of diet consumed by the monoterpene-fed mammals was measured every 24 hours and the assigned partner was pair-fed accordingly.
In the pair-feeding study, all palpable mammary carcinomas were classified as either "primary" tumors (i.e, the first tumor(s) palpated with a minimum diameter of 3 mm) or "secondary" tumors (i.e. a palpable tumor arising after initial diet assignment). At diet assignment, some mammals had more than one primary tumor. All carcinogen-exposed mammals not bearing a first palpable tumor by week 15 post-carcinogen were removed from the experiment. Complete regression of a tumor was defined as non-palpability for a minimum of three consecutive weeks. All mammals in the pair-feeding study were followed for a minimum of 10 weeks post-diet assignment for tumor growth or regression at primary tumor sites and all other mammary glands. The rats were necropsied if moribund. Complete necropsies were performed on all rats at the termination of the study. Greater than 95% of tumors remaining at the autopsy date were diagnosed as mammary carcinomas based on gross and histopathological criteria.

[6] = test system: 21-26 kDa proteins; test: Protein isoprenylation inhibition in M600B human mammary epithelial cells
Protocol: To test whether a specific monoterpene affects isoprenylation of proteins in cells, cell extracts were incubated with a radioactive isoprene precursor and 0-5 mM of the test monoterpene and then subjected to SDS-PAGE. Because they carried a radioactive label, isoprenylated proteins were visualized by fluorography. As a control, cells were incubated without the monoterpene.
For both isoprenylation and cell growth assays, the monoterpenes were mixed with prewarmed (37° C.) medium containing 10% calf serum, and then the monoterpene-containing medium was added to cells. The relative effects of various monoterpenes on protein isoprenylation were compared by comparison of the relative intensity of bands on fluorograms from [^14 C]-mevalonate-labelled cells treated with each monoterpene.
Samples from each cell line were then analyzed on the same gel.

[7] = test system: 21-26 kDa proteins; test: Protein isoprenylation inhibition in NIH3T3 cells (SDS-PAGE fluorography); assay type: cell-based, mouse; conditions: for isoprenylation of the 21-26-kDa bands, % of the control: NIH3T3, gel slicing and scintillation counting
Protocol: "Isoprenylation" is the addition of a multiple of the 5 carbon isoprene unit to a protein. Our experiments in isoprenylation are reported at Crowell, et al. 1991, J. Biol. Chem. 266:17679-17685. To test whether a specific monoterpene affects isoprenylation of proteins in cells, […] were incubated with a radioactive isoprene precursor and 0-5 mM of the test monoterpene and then subjected to SDS-PAGE. Because they carried a radioactive label, isoprenylated proteins were visualized by fluorography. As a control, cells were incubated without the monoterpene.
Cells were harvested after trypsin treatment, washed twice with phosphate-buffered saline, suspended in electrophoresis sample buffer (Laemmli, U.K., 1970, Nature 227:680-685), and either analyzed immediately or stored at -20° C. Whole cell extracts were analyzed by SDS-PAGE on 16-cm×18-cm×0.75-mm gels by the method of Laemmli (supra). The acrylamide concentrations were 5% for the stacking gel and 12% for the separating gel. Gels were stained with Coomassie Brilliant Blue, equilibrated for 20 min in Amplify (Amersham Corp.) fluorographic reagent, dried under vacuum at 65° C., and exposed to preflashed Kodak X-Omat AR film as described by Laskey and Mills (1975, Eur. J. Biochem, 56:335-341). Some fluorograms were analyzed further by densitometry. Where indicated, gels were sliced, dissolved at 50° C. for 3 hours in 0.5 ml of water+0.5 ml of Solvable (Amersham), and then analyzed by scintillation spectrometry in 10 ml of Atom light (Amersham) mixture. Protein content was measured by the method of Lowry, et al. (1951, J. Biol. Chem. 193:265-275).
FIG. 1 depicts the structures of certain monoterpenes.
The degree of isoprenylation was evaluated by the amount of labeled protein present in the 21-26 kDa range, as evidenced by fluorography.

[8] = in vivo
Protocol: Subjects: The subjects were five females and two males, median age of 32 years (range 23-55) and without illness or laboratory abnormalities.
The custard consisted of dry unflavored custard mix, cold water, cold whole milk, and orange oil. The components were blended at room temperature and then refrigerated for at least 30 minutes prior to ingestion by the subjects. Subjects ingested the orange oil-containing mixture over 2-10 minutes. […] The chemistry panel consisted of: BUN, creatinine, calcium, magnesium, phosphorous, uric acid, total cholesterol, total protein, albumin, total bilirubin, y-glutamyl transpeptidase, alkaline phosphatase, aspartate aminotransferase, and lactate dehydrogenase. Subjects were monitored for toxicity for one week.

[9] = Plasma metabolite identification and quantitation in rats; assay type: in vivo, Wistar-Furth rat; conditions: rat, in vivo
Protocol: Control animals received oil alone. At the chosen time points, rats were anesthetized with ether and blood was collected into heparinized tubes (Heparin (Sigma, Grade II), at 20 mg/ml in 0.9% saline). Plasma was removed following centrifugation and stored at -20° C.
For quantitation of chronic plasma metabolite levels of perillyl alcohol, female WF rats were housed individually and fed fresh diet daily. The afternoon before blood collection, all rats were given approximately 20 grams of the appropriate diet and allowed to eat ad. libitum for 18 hours. Food consumption data was determined the next morning and the rats were bled within 2 hours following food removal.
Briefly, 5 μl of a 10 mM solution of perillaldehyde was added to 50 μl plasma as an internal standard for quantitation. The plasma was mixed with an equal volume of n-butanol:acetonitrile (1:1, v/v), after which another volume of saturated potassium phosphate was added. After vortexing, the samples were centrifuged and the organic layer removed from the top.
Plasma extracts were analyzed using a Hewlett-Packard 5891 gas chromatograph equipped with a flame-ionization detector or a Hewlett-Packard 5890 chromatograph equipped with a 5971A mass-selective detector, both with 30 m Supelco SPB-5 columns. The temperature program was 90° C. for 4 minutes, increasing by 10° C./minute, followed by 15 minutes at 275° C. The split ratio was 1:10 and the linear velocity was 1.1 ml/minute. Standard curves were generated by adding 5 μl rat plasma. Standards were then extracted and analyzed by capillary gas chromatography. The ratio of the terpene peak area/perillaldehyde peak area versus the concentration of terpene in the sample was plotted.

[10] = test system: DMBA rat mammary tumor; test: Dietary perillic acid methyl ester-induced rat mammary tumor regression; assay type: in vivo, Wistar-Furth rat; conditions: 0.5% perillic acid methyl ester diet, individual rat tumors
Protocol: (§2) Inbred female Wistar-Furth rats were given 50 mg/kg DMBA at 50-55 days of age. Upon development of a mammary tumor with the largest diameter≥10 mm, the rat was assigned to 0.5% perillic acid methyl ester diet and fed ad libitum. The 0.5% perillic acid methyl ester diet (weight compound/weight ground Teklad rat/mouse 4% meal/chow) was prepared fresh every 7-10 days. Fresh diet was given to rats daily. All rats were weighed and palpated weekly. The study was terminated at 6 weeks after initial diet administration.

[11] = test system: rat mammary carcinoma; test: Comparison of dietary perillyl alcohol and perillic acid methyl ester as inducers of rat mammary carcinoma regression; assay type: in vivo, Wistar-Furth rat; conditions: 0.5% PAME diet
Protocol: as §2, with “administration. The following tumor regression data was acquired:” for “administration.”
We compared the effects of PAME and POH in terms of their ability to regress rat mammary carcinomas. Table 8 records our comparison. In summary, a 0.5% PAME diet was effective, while a 0.5% POH diet was only 10% effective. Diets of 2% POH were roughly 64-70% effective. While 2% POH is tolerated by a mammal, on a practical level PAME is preferred because a lower dose is sufficient.

[12] = test system: M600B cells; test: M600B cell growth inhibition (FIG. 4); assay type: cell-based; conditions: M600B (human) cells
Protocol: (§3) NIH3T3 (mouse embryo) cells were obtained from the American Type Culture Collection and were grown in Dulbecco's modified Eagle's medium supplemented with 10% calf serum. M600B immortalized human mammary epithelial cells (Stampfer, M.R., 1985, J. Tissue Culture Methods 9:107-115) were, obtained from Dr. Martha Stampfer and were grown in supplemented HCDB 170 medium (Hammond, et al. (1984) Proc. Natl. Acad. Sci U.S.A. 81:5435-5439), as described previously (Stampfer, et al. (1985) Proc. Natl. Acad. Sci U.S.A. 82:2394-2398; Eldridge, et al. (1989) Cancer Res. 49:4326-4331).
(§4) All cells were maintained in 100-mm dishes at 37° C. in a humidified 5% CO2 atmosphere. Viable cells were distinguished from nonviable cells by counting azure II/methylene blue-stained colonies 10 days after the cells were plated at a density of 100 cells per dish. Trypan blue exclusion was measured by incubating cells for 1 min with one drop of trypan blue per 10 ml of cells. Viable (colorless) and nonviable (blue) cells were then counted on a hemocytometer.
as §1

[13] = test system: NIH3T3 cells; test: NIH3T3 cell growth inhibition (FIG. 3); assay type: cell-based, mouse; conditions: NIH3T3 (murine) cells
Protocol: as §3, §4, §1

[14] = 10% limonene diet or 2.5% POH diet
[15] = 6 weeks, second comparison, listed as PAME

Structure (SMILES): C=C(C)C1CC=C(C=O)CC1 (stereo not drawn) [Perillylaldehyde, reference compound]
Rank order, inhibition of HT-29 tumor cell proliferation [1]: 3

Structure (SMILES): C=C(C)[C@H]1CC=C(C)CC1 [limonene]
time of highest concentrations of limonene-derived material [2]: 2 to 12 h
side-effects [3]: not without some side-effects
gradeable toxicity [4]: No gradeable toxicity was encountered
Primary carcinoma complete regression (tumors regressed / tumors) [5, 14]: 19/28
Primary carcinoma regression (%) [5, 14]: 68%
Secondary carcinoma regression (%) [5, 14]: 63%
Secondary carcinoma regression (tumors regressed / tumors) [5, 14]: 17/27
Secondary carcinomas/rat [5, 14]: 1.08
development of secondary carcinomas ([5]; after initial diet assignment): number of secondary carcinomas was higher in the limonene-fed mammals
Time to Regress (wks) ([5]; primary carcinoma, footnote: Kaplan-Meier estimate of time when 25% regressed): 3.25 wks
intensity of the 21-26 kDa bands ([6]; 5 mM limonene): marked decrease
concentration required for significant inhibition of protein isoprenylation ([6]; dose responsive): at least 1 mM
isoprenylation of the 21-26-kDa bands, % of the control ([7]; 0.5 mM limonene): ~ 50 % of the control
intensity of the 66-, 46-, and 17-kDa bands ([7]; 0.5 mM or 5 mM limonene): not different from that of the control
isoprenylation of the 21-26-kDa bands, % of the control ([7]; 5 mM limonene): ~ 25 % of the control
time of highest metabolite concentrations ([8]; human): 4 h
identity of abundant human metabolite H2 [8]: limonene-1,2-diol
metabolite concentrations at 24 h (8 h in one subject) [8]: lower than those at the 4 h time point
mM DHPAME [9]: trace
metabolism at 4 hours [9]: equal amounts of perillic and dihydroperillic acid
parent in plasma at 24 hours [9]: no limonene was detectable in the plasma
time parent found in plasma [9]: up to 4 hours
Total ([9]; 30240 min): 0.19 mM
mM DHPA ([9]; 30240 min): 0.06 ± 0.01 mM
mM DHPAME ([9]; 30240 min): 0.01 ± 0.00 mM
mM LIM/POH ([9]; 30240 min): 0 mM
mM PA ([9]; 30240 min): 0.10 ± 0.02 mM
mM PAME ([9]; 30240 min): 0.02 ± 0.01 mM
Total ([9]; 50400 min): 0.28 mM
mM DHPA ([9]; 50400 min): 0.09 ± 0.02 mM
mM DHPAME ([9]; 50400 min): 0.01 ± 0.00 mM
mM LIM/POH ([9]; 50400 min): 0 mM
mM PA ([9]; 50400 min): 0.14 ± 0.03 mM
mM PAME ([9]; 50400 min): 0.04 ± 0.01 mM
Total ([9]; 100800 min): 0.27 mM
mM DHPA ([9]; 100800 min): 0.12 ± 0.01 mM
mM LIM/POH ([9]; 100800 min): 0 mM
mM PA ([9]; 100800 min): 0.13 ± 0.01 mM
mM PAME ([9]; 100800 min): 0.02 ± 0.00 mM
concentration ([9]; po, 1000 mg/kg, 4 h): 90 ± 20 µM
Rank order, inhibition of HT-29 tumor cell proliferation [1]: 5

IC50 ([1]; Homo sapiens, HT-29, read-out: IC50 HT29 tumor cell proliferation): 50 µM
Structure (SMILES): C=C(C)C1CC=C(C(=O)OC)CC1 (stereo not drawn) [perillic acid methyl ester]
time (of tumor size change) [10]: 6 wks and 5 wks and 4 wks and 3 wks and 2 wks
effectiveness of diet [11]: effective
no regression (tumors) ([11]; 6 weeks, second comparison): 10 of 19
no response ([11]; 6 weeks, second comparison): 1
partial regression >1/2 original diameter (%) ([11]; 6 weeks, second comparison): 47%
partial regression >1/2 original diameter (tumors) ([11]; 6 weeks, second comparison): 9 of 19
small regression response ([11]; 6 weeks, second comparison): 4 of 19
some growth of tumor ([11]; 6 weeks, second comparison): 5 of 19
no regression (tumors) [11, 15]: 10/19
no response [11, 15]: 1/19
partial regression >1/2 original diameter (tumors) [11, 15]: 9/19
small regression response [11, 15]: 4/19
some growth of tumor [11, 15]: 5/19
potency in cell proliferation tests versus perillyl alcohol [1]: more potent in cell proliferation, tests than perillyl alcohol
Rank order, inhibition of HT-29 tumor cell proliferation [1]: 1

Structure (SMILES): C=C(C)[C@@H]1CC=C(C(=O)O)CC1 [perillic acid]
inhibition of cell growth [12]: significantly inhibited cell growth in a dose-dependent manner
inhibition of cell growth [13]: significantly inhibited cell growth in a dose-dependent manner
isoprenylation of 21-26 kDa proteins ([6]; 5 mM): inhibited significantly
inhibition of isoprenylation in all cases examined ([7]; all cell types examined): inhibition of isoprenylation
Rank order, inhibition of HT-29 tumor cell proliferation [1]: 4
